The assay deals with P388 leukemia ip, CD2F1 mice, survival T/C. Nature of the assay: NCI In Vivo Anticancer Drug Screen. Data for tumor model P388 Leukemia (intraperitoneal) in CD2F1 (CDF1) mice. Particulars: endpoint: median survival time, higher = longer survival. An outline of the steps: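 Mice carrying the transplanted tumor received test compound or vehicle. Survival was recorded in each group, and the value is the treated-group measurement divided by that of the vehicle-treated control group.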

[1] abbreviates: dose: 25.0 mg/kg/injection, schedule: Q01DX009 (ip), vehicle: saline with Tween-80.
Setting [2] is: dose: 50.0 mg/kg/injection, schedule: Q01DX009 (ip), vehicle: saline with Tween-80.
Where [3] appears, read: dose: 100.0 mg/kg/injection, schedule: Q01DX009 (ip), vehicle: saline with Tween-80.
Setting [4] is: dose: 200.0 mg/kg/injection, schedule: Q01DX009 (ip), vehicle: saline with Tween-80.
The mark [5] stands for this setting: dose: 50.0 mg/kg/injection, schedule: Q01DX009 (ip), vehicle: Klucel (hydroxypropylcellulose) (HPC).
Setting [6] is: dose: 100.0 mg/kg/injection, schedule: Q01DX009 (ip), vehicle: Klucel (hydroxypropylcellulose) (HPC).
Setting [7] is: dose: 200.0 mg/kg/injection, schedule: Q01DX009 (ip), vehicle: Klucel (hydroxypropylcellulose) (HPC).

Molecules are shown by their SMILES. Several values for one entry are separate records, joined by “and”; a condition that tells them apart may be missing. Equal entries are not always repeated. Inconclusive results and toxic doses are left out.

For `CC1CCC(NC(=O)N(CCCl)N=O)CC1` (configuration not stated), the T/C runs as follows: (dose: 1.0 mg/kg/injection, schedule: Q01DX009 (ip), vehicle: saline sonified) 112 % of control; (dose: 2.0 mg/kg/injection, schedule: Q01DX009 (ip), vehicle: saline with Tween-80) 122 % of control; (dose: 3.0 mg/kg/injection, schedule: Q04DX003 (ip), vehicle: other) 163 % of control; (dose: 3.75 mg/kg/injection, schedule: Q04DX003 (ip), vehicle: other) 163 % of control; (dose: 4.0 mg/kg/injection, schedule: Q01DX009 (ip), vehicle: saline sonified) 166 % of control; (dose: 4.0 mg/kg/injection, schedule: Q01DX009 (ip), vehicle: saline with Tween-80) 154 % of control. For the same compound, the T/C (dose: 5.0 mg/kg/injection, schedule: Q04DX003 (ip), vehicle: other) was 238 % of control; the T/C (dose: 6.0 mg/kg/injection, schedule: Q04DX003 (ip), vehicle: other) was 247 % of control; the T/C (dose: 7.5 mg/kg/injection, schedule: Q04DX003 (ip), vehicle: other) is 225 % of control; the T/C (dose: 8.0 mg/kg/injection, schedule: Q01DX009 (ip), vehicle: saline sonified) is 100 % of control; the T/C (dose: 8.0 mg/kg/injection, schedule: Q01DX009 (ip), vehicle: saline with Tween-80) was 190 % of control; the T/C (dose: 10.0 mg/kg/injection, schedule: Q04DX003 (ip), vehicle: other) is 160 % of control. Besides, the T/C (dose: 10.0 mg/kg/injection, schedule: Q04DX003 (ip), vehicle: saline with Tween-80) was 108 % of control and 120 % of control; the T/C (dose: 12.0 mg/kg/injection, schedule: Q04DX003 (ip), vehicle: other) is 238 % of control; the T/C (dose: 15.0 mg/kg/injection, schedule: Q04DX003 (ip), vehicle: other) is 441 % of control; the T/C (dose: 15.0 mg/kg/injection, schedule: Q04DX003 (ip), vehicle: saline with Tween-80) was 218 % of control; the T/C (dose: 16.0 mg/kg/injection, schedule: Q01DX009 (ip), vehicle: saline with Tween-80) is 109 % of control; the T/C (dose: 20.0 mg/kg/injection, schedule: Q04DX003 (ip), vehicle: other) was 231 % of control. Also, the T/C was 227 % of control and 250 % of control (dose: 20.0 mg/kg/injection, schedule: Q04DX003 (ip), vehicle: saline with Tween-80); 110 % of control (dose: 24.0 mg/kg/injection, schedule: Q04DX003 (ip), vehicle: other); 156 % of control (dose: 30.0 mg/kg/injection, schedule: Q04DX003 (ip), vehicle: other).

Regarding `CCC(=O)/C=C/c1ccc(N(C)C)cc1`, the T/C runs as follows: (dose: 100.0 mg/kg/injection, schedule: Q04DX003 (ip), vehicle: Klucel (hydroxypropylcellulose) (HPC)) 93 % of control; (dose: 200.0 mg/kg/injection, schedule: Q04DX003 (ip), vehicle: Klucel (hydroxypropylcellulose) (HPC)) 89 % of control.

For the compound `O=C(Nc1ccccc1C(=O)O)c1cc([N+](=O)[O-])cc([N+](=O)[O-])c1`, the T/C by setting is: under setting [1], 114 % of control; under setting [2], 113 % of control; under setting [3], 109 % of control.

On to `CC(C)(OCc1ccccc1)c1ccccc1[P+](C)(c1ccccc1)c1ccccc1`, for which the T/C by setting is: (dose: 100.0 mg/kg/injection, schedule: Q01DX001 (ip), vehicle: Klucel (hydroxypropylcellulose) (HPC)) 109 % of control; (dose: 200.0 mg/kg/injection, schedule: Q01DX001 (ip), vehicle: Klucel (hydroxypropylcellulose) (HPC)) 113 % of control.

As to `CCN(CC)CCNc1ccc(N)c2sc3ccccc3c(=O)c12`, the T/C reads like this: under setting [2], 103 % of control and 107 % of control and 119 % of control; under setting [3], 115 % of control and 120 % of control and 122 % of control; under setting [4], 96 % of control.

Regarding `Brc1ccc(C2=CSC3=NCCN23)cc1`, the T/C by setting is: (dose: 1.56 mg/kg/injection, schedule: Q01DX009 (ip), vehicle: saline with Tween-80) 97 % of control; (dose: 3.12 mg/kg/injection, schedule: Q01DX009 (ip), vehicle: saline with Tween-80) 94 % of control; (dose: 6.25 mg/kg/injection, schedule: Q01DX009 (ip), vehicle: saline with Tween-80) 106 % of control and 114 % of control and 93 % of control; (dose: 12.5 mg/kg/injection, schedule: Q01DX009 (ip), vehicle: saline with Tween-80) 100 % of control and 103 % of control and 122 % of control; (dose: 18.75 mg/kg/injection, schedule: Q01DX009 (ip), vehicle: saline with Tween-80) 93 % of control; under setting [1], 108 % of control and 113 % of control.

With `CC(=O)[O][Ge]([c]1ccccc1)([c]1ccccc1)[c]1ccccc1`, the T/C is, setting by setting: under setting [5], 107 % of control; under setting [6], 107 % of control; under setting [7], 107 % of control; (dose: 400.0 mg/kg/injection, schedule: Q01DX009 (ip), vehicle: Klucel (hydroxypropylcellulose) (HPC)) 96 % of control.

Regarding `CC1Nc2nc(N)[nH]c(=O)c2NC1C` (configuration not stated), the T/C (dose: 25.0 mg/kg/injection, schedule: Q01DX005 (ip), vehicle: saline) was 97 % of control; the T/C (dose: 50.0 mg/kg/injection, schedule: Q01DX005 (ip), vehicle: saline) is 100 % of control and 97 % of control; the T/C (dose: 100.0 mg/kg/injection, schedule: Q01DX005 (ip), vehicle: saline) was 101 % of control and 97 % of control; the T/C (dose: 200.0 mg/kg/injection, schedule: Q01DX005 (ip), vehicle: saline) is 101 % of control and 95 % of control.

On to `Cc1c2ccncc2c(O)c2c3ccccc3n(C)c12`, for which the T/C (dose: 12.5 mg/kg/injection, schedule: Q01DX005 (ip), vehicle: Klucel (hydroxypropylcellulose) (HPC)) is 108 % of control; the T/C (dose: 25.0 mg/kg/injection, schedule: Q01DX005 (ip), vehicle: Klucel (hydroxypropylcellulose) (HPC)) was 110 % of control; the T/C (dose: 50.0 mg/kg/injection, schedule: Q01DX005 (ip), vehicle: Klucel (hydroxypropylcellulose) (HPC)) is 108 % of control.

With `N#C/C(=C1/OC(=N)C(c2ccccc2Cl)C1=O)c1ccccc1Cl` (configuration not stated), the T/C is, setting by setting: (dose: 50.0 mg/kg/injection, schedule: Q01DX005 (ip), vehicle: saline with Tween-80) 103 % of control; (dose: 100.0 mg/kg/injection, schedule: Q01DX005 (ip), vehicle: saline with Tween-80) 107 % of control; (dose: 200.0 mg/kg/injection, schedule: Q01DX005 (ip), vehicle: saline with Tween-80) 103 % of control.

In the case of `COc1ccc(C2(C)C=C(C)C=C(C)C2=O)cc1` (configuration not stated), the T/C was 100 % of control under setting [2], 106 % of control under setting [3] and 100 % of control under setting [4].

As for `O=C(CC1=NC2NN(c3ccccc3)C(=O)C2=C1CC(=O)c1ccc([N+](=O)[O-])cc1)c1ccc([N+](=O)[O-])cc1` (configuration not stated), the T/C is 99 % of control (dose: 60.0 mg/kg/injection, schedule: Q01DX005 (ip), vehicle: saline with Tween-80); 105 % of control (dose: 120.0 mg/kg/injection, schedule: Q01DX005 (ip), vehicle: saline with Tween-80); 104 % of control (dose: 240.0 mg/kg/injection, schedule: Q01DX005 (ip), vehicle: saline with Tween-80).

`Cc1c2cc[n+](C)c(C)c2cc2c1[nH]c1ccc(O)cc12`: the T/C runs as follows: (dose: 10.0 mg/kg/injection, schedule: Q04DX002 (ip), vehicle: water) 157 % of control; (dose: 20.0 mg/kg/injection, schedule: Q04DX002 (ip), vehicle: water) 162 % of control; (dose: 40.0 mg/kg/injection, schedule: Q04DX002 (ip), vehicle: water) 89 % of control; (dose: 50.0 mg/kg/injection, schedule: Q04DX002 (ip), vehicle: water) 88 % of control.

With `C=C1C2CCC3(CCC4C5(C)CCCC4(C=[N+](CCO)C5)C3C2)C1O` (configuration not stated), under “dose: 25.0 mg/kg/injection, schedule: Q01DX009 (ip), vehicle: Klucel (hydroxypropylcellulose) (HPC)”, the T/C was 94 % of control.

Take `CC#CCOCC1CO1` (configuration not stated): the T/C runs as follows: (dose: 14.6 mg/kg/injection, schedule: Q01DX009 (ip), vehicle: saline) 100 % of control; (dose: 22.0 mg/kg/injection, schedule: Q01DX009 (ip), vehicle: saline) 109 % of control; (dose: 33.0 mg/kg/injection, schedule: Q01DX009 (ip), vehicle: saline) 118 % of control; (dose: 50.0 mg/kg/injection, schedule: Q01DX009 (ip), vehicle: saline) 118 % of control.

On to `CC(=O)n1nc(C)c(-c2onc3ccc(Cl)cc23)c1C`, for which the T/C is 104 % of control under setting [5], 101 % of control under setting [6] and 90 % of control under setting [7].

`CCCCCCC(C(=O)OCC)P(=O)(OCC)OCC` (configuration not stated): the T/C by setting is: (dose: 18.75 mg/kg/injection, schedule: Q01DX009 (ip), vehicle: saline sonified) 90 % of control; (dose: 37.5 mg/kg/injection, schedule: Q01DX009 (ip), vehicle: saline sonified) 95 % of control; (dose: 75.0 mg/kg/injection, schedule: Q01DX009 (ip), vehicle: saline sonified) 100 % of control.

The values are drawn from PubChem BioAssay AID330 (DTP/NCI, 2004).
